# Reference: patent US10072005B2, “4-azaindole derivatives” (EISAI R&D MANAGEMENT CO., LTD., priority 2013, dated 2018)
# Biological target: mAChR M1 (Homo sapiens, UniProt P11229)
# Assay: In vitro cellular calcium flux assay, positive allosteric modulation of mAChR M1
# Format: cell-based
# Conditions: BHK cells expressing mAChR M1; EC20 carbachol; Examples 76-80 and 82-89 slightly modified procedure
# Description: Baby hamster kidney cells stably expressing human or rat mAChR M1 to M5 were utilised for primary and selectivity profiling activities. mAChR M2 and M4 cell lines also stably expressed the chimeric Gαqi5 G-protein.
# Human mAChR M1, M3, M5 and rat M1 cells were grown in low glucose Dulbecco's Modified Eagle's Medium (DMEM) medium plus heat inactivated 10% fetal bovine serum (HI FBS) and 500 μg/ml hygromycin B^1. Human mAChR M2 and M4 cells were maintained as above with^2 the addition of 500 μg/ml G418 to the media. Cells were maintained in culture at 37° C./5% CO2 and passaged twice weekly by treatment with 0.05% Trypsin/EDTA detachment solution, centrifugation (200 g, 5 min) and re-suspension in fresh media. Following cell expansion, cells were cryopreserved at −80° C. by treatment with 0.05% Trypsin/EDTA detachment solution, centrifugation (200 g, 5 min) and re-suspension of the pellet in freezing media (90% HI FBS/10% DMSO^3) at 15E6 cells/ml^4.
# Prior to assaying, cells were prepared by thawing at 37° C. in a water bath, centrifugation (200 g, 5 min) and re-suspension of the pellet in fresh media. 15000 cells per well were seeded in black, clear bottomed 384-well Greiner Bio-One plates in plating medium (DMEM/10% HI FBS) and incubated overnight at 37 C/5% CO2.
# On the day of the assay, media was removed from each well and replaced with 50 μl^5 assay buffer (HBSS with 20 mM HEPES and 2.5 mM Probenecid) containing the calcium indicator, Calcium 4 (Molecular Devices). Cells were then incubated at 37° C./5% CO2 for 30 min and at room temperature.
# Compound preparation was carried out by generation of 11-point, 1 in 3 serial dilution concentration response curves in 100% DMSO. Compound was then diluted 1 in 65^6 with assay buffer (HBSS with 20 mM HEPES and 2.5 mM Probenecid) prior to the addition of 10 ul^7 to the cells using a Tetra fluorometric imaging plate reader (Molecular Devices)^8. Compound driven increases in intracellular calcium flux was measured as an increase in fluorescence (494Ex, 516Em)^9.
# Positive allosteric modulator pEC50 values and antagonist pIC50 values for each compound were then determined. […] The points of modification and the alternate reagents, concentrations or equipment employed in these examples were: ^1200 μg/ml hygromycin B; ^2G418 not added; ^3CELLBANKER 1; ^410E6; ^5 40 μl; ^6 1 in 99; ^7 20 μl; ^8FDSS6000 (Hamamatsu Photonics); ^9(480Ex, 540Em); ^10Spotfire (TIBCO).
# mAChR M1, sequence (P11229 whole entry, looked up): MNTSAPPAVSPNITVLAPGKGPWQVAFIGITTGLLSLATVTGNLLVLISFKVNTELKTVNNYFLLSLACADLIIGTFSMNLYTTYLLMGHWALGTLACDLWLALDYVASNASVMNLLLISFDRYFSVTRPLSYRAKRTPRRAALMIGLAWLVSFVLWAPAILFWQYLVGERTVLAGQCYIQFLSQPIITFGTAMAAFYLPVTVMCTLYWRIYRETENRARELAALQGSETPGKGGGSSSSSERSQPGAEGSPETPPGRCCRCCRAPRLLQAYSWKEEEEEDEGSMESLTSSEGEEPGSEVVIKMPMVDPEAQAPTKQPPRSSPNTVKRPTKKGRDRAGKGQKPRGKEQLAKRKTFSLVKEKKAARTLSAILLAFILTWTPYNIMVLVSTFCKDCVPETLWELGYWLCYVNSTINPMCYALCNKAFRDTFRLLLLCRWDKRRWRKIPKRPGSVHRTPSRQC
row,SMILES,pEC50 for positive allosteric modulation
1,"O=C(NC1CCNCC1)c1cn(Cc2ccc(F)cc2)c2cccnc12 [Example 30, 1-(4-Fluorobenzyl)-N-(piperidin-4-yl)-1H-pyrrolo[3,2-b]pyridine-3-carboxamide]",6.5
2,"O=C(N[C@H]1CCCC[C@@H]1O)c1cn(Cc2cc(F)cc(F)c2)c2cccnc12 [Example 2, 1-(3,5-Difluorobenzyl)-N-((1S,2S)-2-hydroxycyclohexyl)-1H-pyrrolo[3,2-b]pyridine-3-carboxamide]",6.7
3,"Cc1cccc(Cn2cc(C(=O)N[C@H]3CCCC[C@@H]3O)c3nccc(Cl)c32)n1 [Example 16, 7-Chloro-N-((1S,2S)-2-hydroxycyclohexyl)-1-((6-methylpyridin-2-yl)methyl)-1H-pyrrolo[3,2-b]pyridine-3-carboxamide]",6.5
4,"Cc1ccnc2c(C(=O)N[C@H]3CCCC[C@@H]3O)cn(Cc3ccc(Cl)nc3)c12 [Example 59, 1-((6-Chloropyridin-3-yl)methyl)-N-((1S,2S)-2-hydroxycyclohexyl)-7-methyl-1H-pyrrolo[3,2-b]pyridine-3-carboxamide]",7.4
5,"Cn1ccnc1-c1ccc(Cn2cc(C(=O)N[C@H]3CCCC[C@@H]3O)c3ncccc32)cc1 [Example 42, N-((1S,2S)-2-Hydroxycyclohexyl)-1-(4-(1-methyl-1H-imidazol-2-yl)benzyl)-1H-pyrrolo[3,2-b]pyridine-3-carboxamide]",7.0
6,"O=C(N[C@H]1CCCC[C@@H]1O)c1cn(Cc2ccc(OC(F)(F)F)cc2)c2c(Cl)ccnc12 [Example 99, 7-chloro-N-((1S,2S)-2-hydroxycyclohexyl)-1-(4-(trifluoromethoxy)benzyl)-1H-pyrrolo[3,2-b]pyridine-3-carboxamide]",6.7
7,"O=C(N[C@H]1CCCC[C@@H]1O)c1cn(Cc2ccc(F)cc2)c2ccc(Cl)nc12 [Example 39, 5-Chloro-1-(4-fluorobenzyl)-N-((1S,2S)-2-hydroxycyclohexyl)-1H-pyrrolo[3,2-b]pyridine-3-carboxamide]",6.0
8,"COc1ccc(Cn2cc(C(=O)N[C@H]3CCCC[C@@H]3O)c3nccc(Cl)c32)cn1 [Example 68, 7-Chloro-N-((1S,2S)-2-hydroxycyclohexyl)-1-((6-methoxypyridin-3-yl)methyl)-1H-pyrrolo[3,2-b]pyridine-3-carboxamide]",7.7
9,"CN1CCC[C@@H](NC(=O)c2cn(Cc3ccc(-n4cccn4)cc3)c3cccnc23)C1 [Example 55, (R)-1-(4-(1H-Pyrazol-1-yl)benzyl)-N-(1-methylpiperidin-3-yl)-1H-pyrrolo[3,2-b]pyridine-3-carboxamide]",6.7
10,"O=C(NC1CCCCC1)c1cn(Cc2ccc(-n3cccn3)cc2)c2cccnc12 [Example 50, 1-(4-(1H-Pyrazol-1-yl)benzyl)-N-cyclohexyl-1H-pyrrolo[3,2-b]pyridine-3-carboxamide]",6.4
11,"Cc1ccc(Cn2cc(C(=O)N[C@H]3CCCC[C@@H]3O)c3nccc(Cl)c32)nc1 [Example 61, 7-Chloro-N-((1S,2S)-2-hydroxycyclohexyl)-1-((5-methylpyridin-2-yl)methyl)-1H-pyrrolo[3,2-b]pyridine-3-carboxamide]",7.0
12,"N#Cc1ccnc2c(C(=O)N[C@H]3CCCC[C@@H]3O)cn(Cc3ccc(F)cc3)c12 [Example 32, 7-Cyano-1-(4-fluorobenzyl)-N-((1S,2S)-2-hydroxycyclohexyl)-1H-pyrrolo[3,2-b]pyridine-3-carboxamide]",6.7
13,"O=C(N[C@H]1CCCC[C@@H]1O)c1cn(Cc2ccncc2)c2c(Cl)ccnc12 [Example 79, 7-Chloro-N-((1S,2S)-2-hydroxycyclohexyl)-1-(pyridin-4-ylmethyl)-1H-pyrrolo[3,2-b]pyridine-3-carboxamide]",7.4
